According to ChEMBL document CHEMBL5543174, “A Nonbactericidal Anionic Antimicrobial Peptide Provides Prophylactic and Therapeutic Efficacies against Bacterial Infections in Mice by Immunomodulatory-Antithrombotic Duality” (J Med Chem, 2024):
Activity calls are given as the source filed them.

How the values were obtained:
[1] = tested on: Neutrophil; experiment: Induction of degranulation in mouse bone marrow derived neutrophil assessed as increase in lactoferrin release at 25 to 100 ug/ml incubated for 6 hrs by ELISA; format: functional, cell-based; conditions: dose 25-100 µg/ml
[2] = tested on: Peritoneal macrophage; experiment: Induction of chemotaxis in mouse Peritoneal macrophage assessed as upregulation of IL-6 expression at 25 to 100 ug/ml incubated for 6 hrs by ELISA; format: functional, cell-based; conditions: dose 25-100 µg/ml
[3] = tested on: Neutrophil; experiment: Induction of chemotaxis in mouse bone marrow derived neutrophil assessed as increase in neutrophil migration at 100 ug/ml preincubated with PTX for 30 mins followed by compound addition measured after 8 hrs by crystal violet staining based indirect transwell assay; format: functional, cell-based; conditions: dose 100.0 µg/ml
[4] = tested on: Escherichia coli; experiment: Antibacterial activity against Carbapenem-resistant Escherichia coli infected in C57BL/6 mouse assessed as reduction in IL-6 level in serum at 10 mg/kg,ip administrated 5 hrs after bacterial infection measured after 24 hrs by ELISA; format: functional, organism-based; conditions: time 19.0 hrs
[5] = tested on: Mus musculus; experiment: Immunomodulatory activity in cyclophosphamide immunosuppressed C57BL/6 mouse with neutrophil depletion model assessed as increase in number of neutrophil in peritoneal lavage at 10 mg/kg,ip administration measured after 24 hrs by flow cytometry; format: functional, organism-based
[6] = tested on: Neutrophil; experiment: Induction of chemotaxis in mouse bone marrow derived neutrophil assessed as increase in neutrophil migration at 100 ug/ml preincubated with MTS510 for 30 mins followed by compound addition measured after 8 hrs by crystal violet staining based indirect transwell assay; format: functional, cell-based; conditions: dose 100.0 µg/ml
[7] = tested on: Neutrophil; experiment: Induction of chemotaxis in mouse bone marrow derived neutrophil assessed as increase in neutrophil migration incubated for 8 hrs in presence of macrophage by crystal violet staining based indirect transwell assay; format: functional, cell-based
[8] = tested on: Staphylococcus aureus; experiment: Antibacterial activity against Staphylococcus aureus ATCC 25923 infected in C57BL/6 mouse assessed as reduction in IL-6 level in peritoneal fluid at 10 mg/kg,ip administrated 5 hrs after bacterial infection measured after 24 hrs by ELISA; format: functional, organism-based; conditions: time 19.0 hrs
[9] = tested on: Peritoneal macrophage cell; experiment: Induction of ROS production in mouse Peritoneal macrophage incubated for 6 hrs by DCFA-DA staining based flow cytometry; format: functional, cell-based
[10] = tested on: Neutrophil; experiment: Induction of ROS production in mouse bone marrow derived neutrophil at 25 to 100 ug/ml incubated for 6 hrs by DCFA-DA staining based flow cytometry; format: functional, cell-based; conditions: dose 25-100 µg/ml
[11] = tested on: Peritoneal macrophage cell; experiment: Induction of chemotaxis in mouse Peritoneal macrophage assessed as increase in macrophage migration at 100 ug/ml preincubated with KN62 for 30 mins followed by compound addition measured after 8 hrs by crystal violet staining based indirect transwell assay; format: functional, cell-based; conditions: dose 100.0 µg/ml
[12] = tested on: Staphylococcus aureus; experiment: Antibacterial activity against Methicillin-resistant Staphylococcus aureus infected in C57BL/6 mouse assessed as reduction in IL-6 level in serum at 10 mg/kg,ip pre-administrated 5 hrs before bacterial infection measured after 24 hrs by ELISA; format: functional, organism-based; conditions: time 29.0 hrs
[13] = tested on: Escherichia coli; experiment: Antibacterial activity against Carbapenem-resistant Escherichia coli infected in C57BL/6 mouse assessed as reduction in IL-1beta level in serum at 10 mg/kg,ip pre-administrated 5 hrs before bacterial infection measured after 24 hrs by ELISA; format: functional, organism-based; conditions: time 29.0 hrs
[14] = tested on: Escherichia coli; experiment: Antibacterial activity against Escherichia coli ATCC 25922 infected in C57BL/6 mouse assessed as reduction in TNF-alpha level in serum at 10 mg/kg,ip administrated 5 hrs after bacterial infection measured after 24 hrs by ELISA; format: functional, organism-based; conditions: time 19.0 hrs
[15] = tested on: Escherichia coli; experiment: Antibacterial activity against Escherichia coli ATCC 25922 infected in C57BL/6 mouse assessed as reduction in IL-1beta level in peritoneal fluid at 10 mg/kg,ip pre-administrated 5 hrs before bacterial infection measured after 24 hrs by ELISA; format: functional, organism-based; conditions: time 29.0 hrs
[16] = tested on: Candida albicans; experiment: Antimicrobial activity against Candida albicans ATCC 2002 assessed as reduction in metabolic activity at < 200 ug/ml incubated for 1 to 4 hrs by CCK-8 assay; format: functional, organism-based; conditions: dose < 200.0 µg/ml, time 1-4 hrs
[17] = tested on: Staphylococcus aureus; experiment: Antibacterial activity against Staphylococcus aureus ATCC 25923 infected in C57BL/6 mouse assessed as reduction in TNF-alpha level in peritoneal fluid at 10 mg/kg,ip pre-administrated 5 hrs before bacterial infection measured after 24 hrs by ELISA; format: functional, organism-based; conditions: time 29.0 hrs
[18] = tested on: Staphylococcus haemolyticus; experiment: Antimicrobial activity against Staphylococcus haemolyticus ATCC 29970 assessed as inhibition of microbial growth at <= 200 ug/ml incubated for 18 hrs by micro-broth dilution method; format: functional, organism-based; conditions: dose <= 200.0 µg/ml
[19] = tested on: Staphylococcus aureus; experiment: Antibacterial activity against Staphylococcus aureus ATCC 25923 infected in C57BL/6 mouse assessed as reduction in TNF-alpha level in serum at 10 mg/kg,ip administrated 5 hrs after bacterial infection measured after 24 hrs by ELISA; format: functional, organism-based; conditions: time 19.0 hrs
[20] = tested on: Mus musculus; experiment: Anticoagulation activity in mouse infected with Methicillin-resistant Staphylococcus aureus assessed as increase in plasma TFPI expression at 10 mg/kg,ip pre-administrated 5 hrs before bacterial infection measured after 24 hrs by ELISA; format: functional, organism-based; conditions: time 29.0 hrs
[21] = tested on: Staphylococcus aureus; experiment: Antibacterial activity against Methicillin-resistant Staphylococcus aureus infected in C57BL/6 mouse with cyclophosphamide-induced neutrophil depletion model assessed as reduction of bacterial burden in peritoneal cavity at 10 mg/kg,ip pre-administrated 5 hrs before bacterial infection measured after 24 hrs; format: functional, organism-based; conditions: time 29.0 hrs
[22] = tested on: Staphylococcus aureus; experiment: Antibacterial activity against Methicillin-resistant Staphylococcus aureus infected in C57BL/6 mouse assessed as reduction in bacterial load at 10 mg/kg,ip administrated 5 hrs after bacterial infection; format: functional, organism-based
[23] = tested on: Peritoneal macrophage; experiment: Induction of phagocytosis in mouse Peritoneal macrophage assessed as increase in neutral red dye uptake by measuring optical density absorbance at 25 ug/ml incubated for 24 hrs followed by dye addition measured after 4 hrs by absorbance based assay (reference value: 0.089); format: functional; conditions: dose 25 µg/ml; time 28 hrs
[24] = tested on: Staphylococcus aureus; experiment: Antimicrobial activity against Staphylococcus aureus ATCC 25923 assessed as reduction in metabolic activity at < 200 ug/ml incubated for 1 to 4 hrs by CCK-8 assay; format: functional, organism-based; conditions: dose < 200.0 µg/ml, time 1-4 hrs
[25] = tested on: Mus musculus; experiment: Immunomodulatory activity in cyclophosphamide immunosuppressed C57BL/6 mouse with neutrophil depletion model assessed as change in T-lymphocytes in peritoneal lavage at 10 mg/kg,ip administration measured after 5 to 24 hrs by flow cytometry; format: functional, organism-based; conditions: time 5-24 hrs
[26] = tested on: Peritoneal macrophage cell; experiment: Induction of chemotaxis in mouse Peritoneal macrophage assessed as increase in macrophage migration at 100 ug/ml preincubated with MTS510 for 30 mins followed by compound addition measured after 8 hrs by crystal violet staining based indirect transwell assay; format: functional, cell-based; conditions: dose 100.0 µg/ml
[27] = tested on: Staphylococcus aureus; experiment: Antibacterial activity against Methicillin-resistant Staphylococcus aureus infected in C57BL/6 mouse assessed as reduction in IL-1beta level in serum at 10 mg/kg,ip administrated 5 hrs after bacterial infection measured after 24 hrs by ELISA; format: functional, organism-based; conditions: time 19.0 hrs
[28] = tested on: Peritoneal macrophage cell; experiment: Induction of chemotaxis in mouse Peritoneal macrophage assessed as upregulation of CXCL2 production at 100 ug/ml preincubated with WRW4 followed by compound addition by ELISA; format: functional, cell-based; conditions: dose 100.0 µg/ml
[29] = tested on: Neutrophil; experiment: Induction of degranulation in mouse bone marrow derived neutrophil assessed as increase in CRAMP release at 25 to 100 ug/ml incubated for 6 hrs by ELISA; format: functional, cell-based; conditions: dose 25-100 µg/ml
[30] = tested on: Staphylococcus aureus; experiment: Antibacterial activity against Staphylococcus aureus ATCC 25923 infected in C57BL/6 mouse assessed as reduction in bacterial load at 10 mg/kg,ip pre-administrated 5 hrs before bacterial infection; format: functional, organism-based

CC[C@H](C)[C@H](NC(=O)[C@@H]1CSSC[C@H](NC(=O)[C@H](CCC(=O)O)NC(=O)[C@@H](NC(=O)[C@H](CCCCN)NC(=O)[C@H](Cc2c[nH]cn2)NC(=O)[C@@H](NC(=O)[C@H](CCCCN)NC(=O)[C@H](CCC(=O)O)NC(=O)[C@H](C)NC(=O)[C@H](CCC(=O)O)NC(=O)[C@H](CCC(=O)O)NC(=O)[C@H](CCC(=O)O)NC(=O)[C@H](C)N)[C@@H](C)O)[C@@H](C)O)C(=O)N[C@@H](CC(C)C)C(=O)N[C@@H](CCC(=O)O)C(=O)N1)C(=O)N[C@@H](Cc1ccccc1)C(=O)N[C@H](C(=O)N[C@@H](CC(C)C)C(=O)N[C@@H](CC(C)C)C(=O)N1CCC[C@H]1C(=O)N1CCC[C@@H]1C(=O)N[C@H](C)C(=O)O)[C@@H](C)O
inactive: Activity [2] | Activity [3] | Activity [5] | Activity [10] | Activity [16] | Activity [18] | Activity [21] | Activity [24] | Activity [25]
active: Activity [1] | Activity [4] | Activity [6] | Activity [7] Dose-Dependent Effect | Activity [8] | Activity [9] Dose-Dependent Effect | Activity [11] | Activity [12] | Activity [13] | Activity [14] | Activity [15] | Activity [17] | Activity [19] | Activity [20] | Activity [22] | Activity [26] | Activity [27] | Activity [28] | Activity [29] | Activity [30]
0.097: OD [23]
